Data from the NIST ThermoML archive (doi:10.1016/j.jct.2011.04.008).
Numbers after ± are expanded uncertainties.

Test: xn = mol fraction of the nth substance listed
Conditions: 101 kPa, Liquid; for viscosity: Capillary tube (Ostwald / Ubbelohde) method; for speed of sound: Linear variable-path acoustic interferometer; for mass density: Pycnometric method

c1ccccc1 [benzene] + CC(=O)OC(C)(C)C
x2 = 0
Conditions	mass density [kg/m3]	speed of sound [m/s]	viscosity [mPa·s]
298.15 K	873 ± 0.5	1296 ± 3	0.609 ± 0.007
308.15 K	862 ± 0.5	1260 ± 3	0.539 ± 0.007

CC(=O)OC(C)(C)C [1,1-dimethylethyl ethanoate] + c1ccccc1
Conditions	mass density, 298.15 K [kg/m3]	mass density, 308.15 K [kg/m3]	speed of sound, 298.15 K [m/s]	speed of sound, 308.15 K [m/s]	viscosity, 298.15 K [mPa·s]	viscosity, 308.15 K [mPa·s]
x1 = 0.0987	870.6 ± 0.5	859.3 ± 0.5	1254 ± 3	1215 ± 3	0.613 ± 0.007	0.54 ± 0.007
x1 = 0.1999	868.5 ± 0.5	856.8 ± 0.5	1220 ± 3	1179 ± 3	0.618 ± 0.007	0.542 ± 0.007
x1 = 0.299	866.7 ± 0.5	854.9 ± 0.5	1192 ± 3	1150 ± 3	0.623 ± 0.007	0.544 ± 0.007
x1 = 0.3982	865.3 ± 0.5	853.2 ± 0.5	1169 ± 3	1127 ± 3	0.629 ± 0.007	0.548 ± 0.007
x1 = 0.498	864.1 ± 0.5	851.9 ± 0.5	1149 ± 3	1107 ± 3	0.636 ± 0.007	0.552 ± 0.007
x1 = 0.5995	863 ± 0.5	850.8 ± 0.5	1133 ± 3	1091 ± 3	0.643 ± 0.008	0.558 ± 0.007
x1 = 0.6996	862.3 ± 0.5	850 ± 0.5	1120 ± 3	1079 ± 3	0.651 ± 0.008	0.565 ± 0.007
x1 = 0.7999	861.7 ± 0.5	849.5 ± 0.5	1109 ± 3	1068 ± 3	0.661 ± 0.008	0.574 ± 0.007
x1 = 0.8993	861.3 ± 0.5	849.4 ± 0.5	1099 ± 3	1060 ± 3	0.671 ± 0.008	0.584 ± 0.008
x1 = 1	861.1 ± 0.5	849.4 ± 0.5	1092 ± 3	1055 ± 3	0.683 ± 0.008	0.596 ± 0.008

CC(=O)OC(C)(C)C [1,1-dimethylethyl ethanoate] + CCc1ccccc1
Conditions	mass density, 298.15 K [kg/m3]	mass density, 308.15 K [kg/m3]	speed of sound, 298.15 K [m/s]	speed of sound, 308.15 K [m/s]	viscosity, 298.15 K [mPa·s]	viscosity, 308.15 K [mPa·s]
x1 = 0.0979	863.9 ± 0.5	854.7 ± 0.5	1287 ± 3	1245 ± 3	0.635 ± 0.008	0.571 ± 0.008
x1 = 0.1974	863.3 ± 0.5	853.9 ± 0.5	1254 ± 3	1214 ± 3	0.639 ± 0.008	0.573 ± 0.008
x1 = 0.2989	862.6 ± 0.5	852.9 ± 0.5	1224 ± 3	1186 ± 3	0.641 ± 0.008	0.573 ± 0.008
x1 = 0.3983	861.9 ± 0.5	852 ± 0.5	1198 ± 3	1161 ± 3	0.644 ± 0.008	0.574 ± 0.008
x1 = 0.4976	861.3 ± 0.5	851.1 ± 0.5	1176 ± 3	1139 ± 3	0.647 ± 0.008	0.575 ± 0.008
x1 = 0.5986	860.7 ± 0.5	850.3 ± 0.5	1155 ± 3	1119 ± 3	0.651 ± 0.008	0.576 ± 0.008
x1 = 0.6977	860.4 ± 0.5	849.7 ± 0.5	1137 ± 3	1101 ± 3	0.656 ± 0.008	0.579 ± 0.008
x1 = 0.7979	–	849.3 ± 0.5	1121 ± 3	1085 ± 3	0.663 ± 0.008	0.582 ± 0.008
x1 = 0.8978	860.5 ± 0.5	849.2 ± 0.5	1106 ± 3	1069 ± 3	0.671 ± 0.008	0.588 ± 0.008
x1 = 1	861.1 ± 0.5	849.4 ± 0.5	1092 ± 3	1055 ± 3	0.683 ± 0.008	0.596 ± 0.008
